From patent US20220288051A1, “METHODS FOR TREATING CANCER USING SERIAL ADMINISTRATION OF E3 UBIQUITIN LIGASE DEGRADERS” (Dana-Farber Cancer Institute, Inc., priority 2019, published 2022)
Entries after “also recorded” stand apart in the source; their conditions may differ.

What was measured:
MM.1S Cas9+ cells = assay: Dose-response assay of cells with individual sgRNA knock-outs, CTG; type: cell-based, human
Protocol: Non-targeting control sgRNAs and COPS7B sgRNAs were from GeCKOv2. Four sgRNAs were generated per each gene, except from COPS7B, for which 6 sgRNAs were available (Table S2). All sgRNAs were synthesized by CustomArray Inc (Bothell, Wash.). Cloning was performed according to the protocol published by Zhang et al. (media.addgene.org/cms/filer_public/4f/ab/4fabc269-56e2-4ba5-92bd-09dc89c1e862/zhang_lenticrisprv2_and_lentiguide_oligo_cloning_protocol_1.pdf) using a pHKO9 vector. Briefly, to clone the sgRNA guide sequence, plasmids were digested with BsmBI (New England Biolabs, Ipswich, Mass.) at 55° C. for 1 hour. Oligonucleotides for each sgRNA guide sequence were annealed and phosphorylated using T4 Ligation Buffer and T4 polynucleotide kinase (New England Biolabs) at 37° C. for 30 minutes and then annealed by heating to 95° C. for 5 minutes and cooling to 25° C. at 1.5° C./minute. Using T4 ligation buffer and T4 ligase (New England Biolabs), annealed oligos were ligated into gel purified vectors (Qiagen) at 65° C. for 10 minutes. 2.5 ug of the ligation product were transformed in 30 uL E. coli electrocompetent cells (Lucigen E.cloni 10 G ELITE PLUS, Invitrogen). Subsequently, 500 uL of transformed cells were plated on LB Agar-AmpR (ThermoFisher Scientific) and incubated overnight at 37° C. Three colonies per plate were then picked and inoculated in a mini-prep culture (Qiagen). The product was then digested with BsmBI and XhoI (New England Biolabs) at 37° C. for 1 h and compared to the uncut control on 1% agarose gel. One out of three colonies (10 uL) was then precultured in 3 mL LB Broth-AmpR and shaken at 37° C. for 6 h. Afterwards it was transferred to a 250 mL LB Broth-AmpR flask and incubated overnight at 37° C. Each culture was then inoculated into a maxiprep culture (Qiagen).
Also, CRBN, VHL, TCEBJ, TCEB2, UBE2R2 and FBXW2 sgRNA are selected from Brunello library and cloned using pLVX-hyg-sgRNA1 Vector system (Takara Bio USA, CA) according to the manufacturer's manual. b(takarabio.com/assets/documents/User %20Manual/Lenti-X_CRISPR-Cas9_System_User_Manual_121316.pdf)
ii. Lentiviral transductions with constructs for individual sgRNAs: 500×10^3 to 1×10^6 MM.1S Cas9 cells were plated in 50 uL of complete RPMI1640 medium per well in a 24-well plate, and additional 100 uL of complete RPMI1640 medium were added to cover the well completely. Cells were incubated in cell medium containing polybrene (5 to 8 μg/mL; Santa Cruz Biotechnology), and viral prep. 24 hours after addition of viral preps, media were changed and, after another 48 h, puromycin selection (1 to 2 ug/ml per well) was started. After 7 days of puromycin selection, transduced MM.1S Cas9+ cells were collected and expanded in T75 flasks.
iii. […] In the case of Thal-SNS-032 or ARV771, cells are plated 384-well plate and treated each concentration described at figure and viability assays were performed at 72 hrs.

MM.1S-Cas9+ cells = assay: Genome-scale CRISPR/Cas9 gene editing (LOF) resistance screens; type: cell-based, human; conditions: for sgRNA enrichment in resistant cells, long-term screen: long-term treatment, NGS of sgRNAs; for sgRNA enrichment, extended degronimid treatment: Thal-SNS-032-resistant MM.1S cells, additional 2 weeks
Protocol: MM.1S cells transduced with lentiviral construct for SpCas9 were kindly provided from Quinlan Sievers (Ebert Lab, BWH/DFCI). MM.1S cells were also transduced with lentiviral construct for dCas9-VP64 (purchased from Addgene).
ii. Lentiviral transductions with sgRNA libraries: For the screen with the GECKOv2 sgRNA library, tumor cell transductions were performed in batches of 8×10^7 cells per sub-library for each replicate. Cells were incubated for 16 hrs in cell medium containing polybrene (2 μg/mL; Santa Cruz Biotechnology), 10 mM HEPES (pH 7.4) (Sigma-Aldrich) and viral prep (4 mL) diluted to achieve an MOI of 0.4. After the end of the incubation with the viral preps, cells were washed and incubated for an additional day. Transduced cells were cultured at an initial density of 1×10^6 cells/mL and were treated with puromycin (1 μg/mL) for up to 14 days immediately after transduction. After puromycin selection, MM.1S-Cas9^+ cells transduced with each GeCKOv2 sublibrary were plated at 60×10^6 cells per flask (T175, 100 mL) to enable coverage of ˜1000× and were sub-cultured at four to five-day intervals to prevent confluence. At each passage, cells were harvested, washed with PBS (Corning, N.Y.), pelleted (5000 rpm, 5 min, 4° C.) and frozen as cell pellets (−80° C.) for next generation sequencing, and also replated at 60×10^6 cells to maintain 1000× coverage.
For the genome-scale screens with the Brunello sgRNA library, tumor cell transductions were performed in batches of 5×10^7 cells per library for six replicates. Cells were incubated (18 h) in cell medium containing polybrene (5 μg/mL; Santa Cruz Biotechnology), 10 mM HEPES (pH 7.4) (Sigma-Aldrich) and viral prep (30 mL) diluted 1:1. Transduced cells were cultured at an initial density of 1×10^6 cells/mL and were treated with puromycin (1 μg/mL) for up to 5 days additional two days from transduction. After stable transduction, pooled MM.1S cells were plated at 40×10^6 cells per flask (T175, 100 mL) to enable coverage of 500× and were sub-cultured at three- to four day intervals to prevent confluence. At each passage, cells were harvested, washed with PBS (Corning), pelleted (5000 rpm, 5 min, 4° C.) and frozen as cell pellets (−80° C.) for next generation sequencing, and also replated at 40×10^6 cells (˜500× coverage).
iii. […] Following treatments, all cells were serially cultured without drug and allowed to regrow for as long as required to enable reseeding (60×10^6 cells per flask, 100 mL) and retreatment with individual drugs while maintaining ˜1000× coverage throughout. Concomitant with retreatment, remaining cells were frozen (−80° C.; 20% FBS/DMSO) for later analysis or assessed for drug resistance/sensitivity using CTG assays. Between treatments, and in order to maintain the health of cultures, dead cells were periodically removed using Ficoll centrifugation (1,500 rpm for 10-20 min). For all CRISPR drug treatment experiments, aliquots of MM.1S-Cas9+ cells transduced with the GeCKO(Sanjana et al., 2014; Shalem et al., 2014) or Brunello (Doench et al., 2016) sgRNA libraries were frozen immediately prior to experimentation to determine the baseline distribution of sgRNAs in the cell population.
For “long-term” treatment screens with Thal-SNS-032-, ARV-771- and MZ-1-resistant cells, we continuously treated MM.1S-Cas9+ cells (40×10^6, —500× coverage) transduced with the Brunello sgRNA library (4 weeks post-puromycin selection) with either each compound's (IC20) or vehicle control. Cells were serially passaged every 3-4 days to prevent confluence, each time replating at ˜500× coverage (100 mL) at the same time replenishing each compound or vehicle. Drug treatments were paused if cell numbers fell below 10×10^6 per flask, allowing cells to recover and regrow, and treatments were resumed at a lower concentration when cell numbers reached 40×10^6. At each passage, cells were assayed for drug sensitivity/resistance using CTG. […]

Cc1ncsc1-c1ccc([C@H](C)NC(=O)[C@@H]2C[C@@H](O)CN2C(=O)[C@@H](NC(=O)COCCCOCCNC(=O)C[C@@H]2N=C(c3ccc(Cl)cc3)c3c(sc(C)c3C)-n3c(C)nnc32)C(C)(C)C)cc1 [ARV-771]
activity against cells with sgRNAs against CRBN (MM.1S Cas9+ cells; MM.1S cells): no significant changes in ARV771 activity
response of cells with sgRNAs against COPS7B or COPS8 (MM.1S Cas9+ cells; compared to parental MM.1S cells): decreased response
sgRNA enrichment in resistant cells, long-term screen (MM.1S-Cas9+ cells): enrichment of sgRNAs for CUL2, VHL itself

CC(C)(C)c1cnc(CSc2cnc(NC(=O)C3CCN(CC(=O)NCCOCCOCCOCCNc4cccc5c4C(=O)N(C4CCC(=O)NC4=O)C5=O)CC3)s2)o1 (stereo not drawn) [Thal-SNS-032]
Thal-SNS-032 responsiveness after individual sgRNAs (MM.1S Cas9+ cells; sgRNAs for COPS7B, COPS2, DDB1 or COPS8): decrease the Thal-SNS-032 responsiveness
sgRNA enrichment, extended degronimid treatment (MM.1S-Cas9+ cells): CRBN is the only gene which exhibits enrichment of its sgRNAs; also recorded: further enrichment of MM cells containing sgRNA against CRBN
sgRNA enrichment in resistant cells, long-term screen (MM.1S-Cas9+ cells): pronounced enrichment of sgRNAs for CRBN itself, and COP9 signalosome complex genes

Cc1sc2c(c1C)C(c1ccc(Cl)cc1)=N[C@@H](CC(=O)NCCCCCCCCNC(=O)COc1cccc3c1C(=O)N(C1CCC(=O)NC1=O)C3=O)c1nnc(C)n1-2 (stereo partly drawn) [dBET6]
response to dBET6 after individual sgRNAs (MM.1S Cas9+ cells; sgRNAs for COPS7B, COPS8 or CRBN): decreases the response of MM.1S cells to dBET6
sgRNA enrichment, extended degronimid treatment (MM.1S-Cas9+ cells): CRBN is the only gene which exhibits enrichment of its sgRNAs; also recorded: further enrichment of MM cells containing sgRNA against CRBN
sgRNA enrichment in resistant cells, long-term screen (MM.1S-Cas9+ cells): significant enrichment of sgRNAs targeting CRBN itself, as well as other components or regulators of the cullin-RING ligase (CRL) complex
